{"source": "patent US11590117B2", "about": "“Treatment of a hematologic malignancy with 2-(4-chlorophenyl)-n-((2-(2,6-dioxopiperidin-3-yl)-1-oxoisoindolin-5-yl)methyl)-2,2-difluoroacetamide” (priority 2016, dated 2023)", "assay_type_in_all_cases": "cell-based, human", "key": {"HNT-34 cells": {"system": "HNT-34 cells", "experiment": "Compound 1 washout assay (glutarimide washout, viability at 72 hours)", "conditions": "viability after 72 hours", "experimental": "Compound 1 Washout Assay: For washout experiments, AML cell lines were plated in U-bottom 96-well plates at a density of 60,000 cells per well. All cells were treated at time zero (t=0) with Compound 1, then, at each time point, cells were resuspended in washout media containing glutarimide at 1000-fold excess over the compound working concentration (eg, 100 μM glutarimide for washout of 100 nM compound treatment). At the end of the incubation period, the plates were centrifuged for 3 minutes at 200 g, supernatant was removed, and cells were resuspended in 100 μL/well 1× Annexin V binding buffer containing Annexin V (2.5 μL/well) and 7-AAD (5 μL/well). Flow cytometry was performed using a BD FACSarray instrument and results were quantified using FlowJo software. At the same time, CTG was added to the 96-(black) well plates and processed as described above in the cell proliferation assay.\nIn order to determine at what time point Compound 1 causes AML cell lines to commit to apoptosis, washout experiments were performed at different time points, and the cell viability was assessed after 72 hours (see schematic in FIG. 30 A). Compound 1 (100 nM) irreversibly committed the cells to apoptosis within 8 to 16 hours of treatment (FIG. 30 B). Washing out 100 nM Compound 1 between 1 and 4 hours reduced the potency (right-shift in the EC50 curve) by ˜10-fold."}, "CFU-E": {"system": "CFU-E", "experiment": "Colony forming assay, bone marrow CD34+ cells in MethoCult", "experimental": "(§1) Experimental design: human bone marrow (BM) CD34+ cells were used to evaluate the potential for BM toxicity induced by Compound 1. In order to test the effects of Compound 1 on the functionality of hematopoietic progenitors, colony forming assays were done by seeding BM CD34+ cells on MethoCult medium. Cells were seeded directly in MethoCult with Compound 1 or cultured in liquid medium with Compound 1 for 2, 4, or 8 hours and then seeded in compound-free MethoCult to evaluate the effect of different exposure times. Early apoptosis induced by Compound 1 on HSC was analyzed by flow cytometry.\n(§2) Results. Colony forming units (CFU) of common granulocyte/erythrocyte/monocyte/megakaryocyte (CFU-GEMM), CFU of granulocyte/monocyte (CFU-GM), burst forming unit of erythrocytes (BFU-E), and CFU of erythrocytes (CFU-E) in cultures exposed to Compound 1 or DMSO were scored on STEMvision.\n(§3) Bone marrow CD34+ cells from normal donors were incubated with Compound 1 in MethoCult medium. Colony numbers for CFU-GM and BFU-E progenitors were counted using STEMVision automatic colony counting instrument and software and normalized to the colony number of the DMSO control. Results plotted as percentage of DMSO control vs concentration of Compound 1 were used to determine IC50 values. Data are shown as mean standard error of the mean of n=3 technical replicates. Donors were HD10, HD14, HD18, and HD19."}, "CFU-GEMM": {"system": "CFU-GEMM", "experiment": "Colony forming assay, bone marrow CD34+ cells in MethoCult", "experimental": "as §1, §2, §3"}, "[1]": {"system": "Bone marrow mononuclear cells (BMMCs) from high risk MDS patients", "experiment": "MDS intracellular flow cytometry, active Caspase 3", "conditions": "24 hours exposure", "experimental": "Methods. The effect of Compound 1 on high risk MDS samples was measured in an in vitro liquid culture as well as by colony assays in order to better define its effect on stem/progenitor cells. Bone marrow mononuclear cells (BMMCs) from high risk MDS patients were cultured in vitro in CellGro medium (GellGenix) supplemented with hLDL (40 μg/mL), SCF (50 ng/mL), FLT3 […] (50 ng/mL), IL-3 (10 ng/mL), IL-6 (25 ng/mL) and TPO (100 ng/mL), all from Peprotech. During culture, cells were exposed to different concentrations of Compound 1 (37, 111, 333 and 1000 nM) or DMSO control. After 24 hours, cells were washed twice to remove compound and maintained in culture up to one week, performing viable cell counting on days 1, 3 and 7. Just after compound washout, […] per condition were collected for colony forming assays and another […] were stained for intracellular flow cytometry.\nFor intracellular flow cytometry measurement of apoptosis cells were fixed in 1.6% paraformaldehyde, permeabilized in ice cold methanol and stained using a FITC-conjugated anti-active Caspase 3 antibody (Becton Dickinson). A FACSCanto II flow cytometer (Becton Dickinson) was used for flow cytometry data acquisition. Flow cytometry standard (FCS) files were analyzed using Infinicyt software (Cytognos)."}, "[2]": {"conditions": "Donor HD10, 7.4 nM Compound 1, replicate counts"}, "[3]": {"conditions": "Donor HD10, 22.2 nM Compound 1, replicate counts"}, "[4]": {"conditions": "Donor HD10, 67 nM Compound 1, replicate counts"}, "[5]": {"conditions": "Donor HD10, 200 nM Compound 1, replicate counts"}, "[6]": {"conditions": "Donor HD10, 600 nM Compound 1, replicate counts"}, "[7]": {"conditions": "Donor HD14, 7.4 nM Compound 1, replicate counts"}, "[8]": {"conditions": "Donor HD14, 22.2 nM Compound 1, replicate counts"}, "[9]": {"conditions": "Donor HD14, 67 nM Compound 1, replicate counts"}, "[10]": {"conditions": "Donor HD14, 200 nM Compound 1, replicate counts"}, "[11]": {"conditions": "Donor HD14, 600 nM Compound 1, replicate counts"}, "[12]": {"conditions": "Donor HD18, 7.4 nM Compound 1, replicate counts"}, "[13]": {"conditions": "Donor HD18, 22.2 nM Compound 1, replicate counts"}, "[14]": {"conditions": "Donor HD18, 67 nM Compound 1, replicate counts"}, "[15]": {"conditions": "Donor HD18, 200 nM Compound 1, replicate counts"}, "[16]": {"conditions": "Donor HD18, 600 nM Compound 1, replicate counts"}, "[17]": {"conditions": "Donor HD19, 7.4 nM Compound 1, replicate counts"}, "[18]": {"conditions": "Donor HD19, 22.2 nM Compound 1, replicate counts"}, "[19]": {"conditions": "Donor HD19, 67 nM Compound 1, replicate counts"}, "[20]": {"conditions": "Donor HD19, 200 nM Compound 1, replicate counts"}, "[21]": {"conditions": "Donor HD19, 600 nM Compound 1, replicate counts"}}, "note": "Several values for one entry are separate records, joined by “and”; a condition that tells them apart may be missing. Equal values may be shown once."}
{"smiles": "O=C1CCC(N2Cc3cc(CNC(=O)C(F)(F)c4ccc(Cl)cc4)ccc3C2=O)C(=O)N1", "note": "(stereo not shown) [Compound 1, 2-(4-chlorophenyl)-N-((2-(2,6-dioxopiperidin-3-yl)-1-oxoisoindolin-5-yl)methyl)-2,2-difluoroacetamide]", "values": [{"measurement": "reduction of potency on washout", "setting": "HNT-34 cells; washout at 8 to 16 hours", "result": "~4", "unit": "fold"}, {"measurement": "reduction of potency (right-shift in the EC50 curve) on washout", "setting": "HNT-34 cells; washout between 1 and 4 hours", "result": "~10", "unit": "fold"}, {"measurement": "Colony Number CFU-E", "setting": "CFU-E; [2]", "result": 2}, {"measurement": "Colony Number CFU-E", "setting": "CFU-E; [3]", "result": 0}, {"measurement": "Colony Number CFU-E", "setting": "CFU-E; [4]", "result": 0}, {"measurement": "Colony Number CFU-E", "setting": "CFU-E; [5]", "result": "1 and 3"}, {"measurement": "Colony Number CFU-E", "setting": "CFU-E; [6]", "result": 0}, {"measurement": "Colony Number CFU-E", "setting": "CFU-E; [7]", "result": "6 and 0"}, {"measurement": "Colony Number CFU-E", "setting": "CFU-E; [8]", "result": "7 and 0"}, {"measurement": "Colony Number CFU-E", "setting": "CFU-E; [9]", "result": 4}, {"measurement": "Colony Number CFU-E", "setting": "CFU-E; [10]", "result": "1 and 2"}, {"measurement": "Colony Number CFU-E", "setting": "CFU-E; [11]", "result": "2 and 0"}, {"measurement": "Colony Number CFU-E", "setting": "CFU-E; [12]", "result": "0 and 2"}, {"measurement": "Colony Number CFU-E", "setting": "CFU-E; [13]", "result": "7 and 1"}, {"measurement": "Colony Number CFU-E", "setting": "CFU-E; [14]", "result": "3 and 0"}, {"measurement": "Colony Number CFU-E", "setting": "CFU-E; [15]", "result": "3 and 2"}, {"measurement": "Colony Number CFU-E", "setting": "CFU-E; [16]", "result": 1}, {"measurement": "Colony Number CFU-E", "setting": "CFU-E; [17]", "result": "9 and 4"}, {"measurement": "Colony Number CFU-E", "setting": "CFU-E; [18]", "result": "4 and 5"}, {"measurement": "Colony Number CFU-E", "setting": "CFU-E; [19]", "result": "6 and 3"}, {"measurement": "Colony Number CFU-E", "setting": "CFU-E; [20]", "result": "3 and 1"}, {"measurement": "Colony Number CFU-E", "setting": "CFU-E; [21]", "result": 1}, {"measurement": "Colony Number CFU-GEMM", "setting": "CFU-GEMM; [2]", "result": "4 and 2"}, {"measurement": "Colony Number CFU-GEMM", "setting": "CFU-GEMM; [3]", "result": "2 and 0"}, {"measurement": "Colony Number CFU-GEMM", "setting": "CFU-GEMM; [4]", "result": "5 and 1"}, {"measurement": "Colony Number CFU-GEMM", "setting": "CFU-GEMM; [5]", "result": 0}, {"measurement": "Colony Number CFU-GEMM", "setting": "CFU-GEMM; [6]", "result": 0}, {"measurement": "Colony Number CFU-GEMM", "setting": "CFU-GEMM; [7]", "result": 0}, {"measurement": "Colony Number CFU-GEMM", "setting": "CFU-GEMM; [8]", "result": 0}, {"measurement": "Colony Number CFU-GEMM", "setting": "CFU-GEMM; [9]", "result": 0}, {"measurement": "Colony Number CFU-GEMM", "setting": "CFU-GEMM; [10]", "result": 0}, {"measurement": "Colony Number CFU-GEMM", "setting": "CFU-GEMM; [11]", "result": 0}, {"measurement": "Colony Number CFU-GEMM", "setting": "CFU-GEMM; [12]", "result": "2 and 4"}, {"measurement": "Colony Number CFU-GEMM", "setting": "CFU-GEMM; [13]", "result": 1}, {"measurement": "Colony Number CFU-GEMM", "setting": "CFU-GEMM; [14]", "result": 0}, {"measurement": "Colony Number CFU-GEMM", "setting": "CFU-GEMM; [15]", "result": 0}, {"measurement": "Colony Number CFU-GEMM", "setting": "CFU-GEMM; [16]", "result": 0}, {"measurement": "Colony Number CFU-GEMM", "setting": "CFU-GEMM; [17]", "result": 4}, {"measurement": "Colony Number CFU-GEMM", "setting": "CFU-GEMM; [18]", "result": "0 and 1"}, {"measurement": "Colony Number CFU-GEMM", "setting": "CFU-GEMM; [19]", "result": "0 and 1"}, {"measurement": "Colony Number CFU-GEMM", "setting": "CFU-GEMM; [20]", "result": 0}, {"measurement": "Colony Number CFU-GEMM", "setting": "CFU-GEMM; [21]", "result": 0}, {"measurement": "caspase 3 activation", "setting": "[1]", "result": "induction of apoptosis"}]}
